Measured values: US11142588B2, “Polypeptides which bind C-X-C chemokine receptor type 4 (CXCR4) and methods of treating or reducing the risk of fibrosis and cancer” (AdAlta Limited, priority 2015, dated 2021)
Values joined by “and” are separate entries in the source; they are usually repeats but may differ in a detail not shown here. Identical values can stand only once.

What was measured:
human fibrocytes = assay: Binding to human fibrocytes (confocal microscopy); format: cell-based; settings: CD45 positive cells of PBMCs
Experimental: PBMCs were smeared on a microscope slide and fixed with acetone at 4° C. for 10 minutes. Following three times washing and rehydration with PBS the slides were incubated with mouse antiFLAG 1:100 dilution over night at 4° C. After washing the slides were incubated with Goat anti-mouse Alex Fluor 568 (to detect i-body by binding anti FLAG) at room temperature for 1 hour. The slides were then washed and incubated with Mouse anti-CD-45 FITC labeled antibody over night at 4° C. After further washing the slides were and mounted with ProLong Gold antifade mountant containing DAPI. Images were captured by using Nikon A1 confocal microscope.

[1] = test system: normal and IPF lung fibroblasts; assay: Wound healing invasion assay of lung fibroblasts; format: cell-based, human; settings: 130 μg/ml
Outline: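 Normal and slow- or rapid-progressing IPF lung fibroblasts were plated overnight on basement membrane extract (50 μg/ml coating), then overlaid with BME polymerised at 37° C for 15 min. Wound invasion was imaged every 2 h for about 50 h and quantified by image analysis.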

Ramos tumor cells = assay: Apoptosis assay (annexin V / propidium iodide flow cytometry); format: cell-based, human; settings: annexin V and propidium iodide double positive, 24 or 72 hours
[2] = Laser induced choroidal neovascularisation model; format: in vivo, mouse
Experimental: The laser induced choroidal neovascularisation (CNV) is a well characterised and accepted model of choroidal neovascularisation (Fletcher E L et al. (2011) Prog Mol Biol Transl Sci 100:211-286). It is also a rapid method for determining the efficacy of potential treatments that target angiogenesis and fibrosis. Briefly, up to four laser spots are applied to the posterior eye using a continuous wave photocoagulation laser ([…] diode). The laser energy is high enough to create a break in Bruch's membrane. During the following 7-14 days, growth of blood vessels from the choroid into the retina occurs, and is quantified either immuocytochemically, or using fluorescein angiography.
Mice were treated as below: • Group 1 (n=10): laser both eyes-vehicle in one eye; i-body in the other • Group 2 (n=10): Laser one eye (no i-body); other eye unlasered. • The i-body drug was injected intravitreally in 1 μl volume at a concentration up to 20 mg/ml.
The expression of genes associated with angiogenesis and fibrosis was examined. Total RNA was isolated from the retina and RPE/choroidal samples using commercial spin columns (RNeasy, Qiagen, Valencia Calif.). A PCR gene array was used to assess the expression of 84 genes involved angiogenesis or fibrosis (Qiagen). Briefly, total RNA samples from untreated, laser treated eyes and untreated fellow eyes (n=9 each group, each 25 ng) were pooled within their respective treatment groups (3 independent experiments containing 3 pooled samples), reversed transcribed (RT2 first strand, Qiagen) and then underwent pre-amplification of the cDNA target templates (RT2 pre-AMP, Qiagen). Samples were added to a commercial mastermix (RT2 SYBR green mastermix, Qiagen) and amplified for 40 cycles (ABI 7900HT, Life Technologies, Grand Island N.Y.). Three independent arrays were performed for each treatment group. The data were analysed using delata delta Ct (ΔΔCt), expressed as fold change and regulation assessed using an unpaired t-test.

CXCR4 [3] = molecular target: T1, CXCR4 (Homo sapiens, UniProt P61073); assay: HitHunter cAMP assay in antagonist mode; format: cell-based; settings: SDF-1 at EC80, forskolin 15 μM, read-out: cAMP inhibition IC50
T1 sequence (P61073 whole entry): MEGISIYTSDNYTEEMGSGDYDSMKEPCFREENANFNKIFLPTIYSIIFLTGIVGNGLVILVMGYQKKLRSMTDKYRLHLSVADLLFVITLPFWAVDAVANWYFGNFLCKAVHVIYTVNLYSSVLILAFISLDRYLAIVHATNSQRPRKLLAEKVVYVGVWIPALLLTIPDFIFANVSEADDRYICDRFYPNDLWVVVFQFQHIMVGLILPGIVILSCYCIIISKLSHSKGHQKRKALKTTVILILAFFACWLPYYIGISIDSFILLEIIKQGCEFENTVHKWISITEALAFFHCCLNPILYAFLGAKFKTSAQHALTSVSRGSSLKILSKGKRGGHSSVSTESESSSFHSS
Excerpt: Hit Hunter® cAMP assays monitor the activation of a GPCR via an inhibitory regulative G-protein (Gi) and a stimulative regulative G-protein (Gs) secondary messenger signaling in a homogenous, non-imaging assay format using a technology developed by DiscoveRx called Enzyme Fragment Complementation (EFC) with β-galactosidase (β-Gal) as the functional reporter. The enzyme is split into two complementary portions: EA for Enzyme Acceptor and ED for Enzyme Donor. ED is fused to cAMP and in the assay competes with cAMP generated by cells for binding to a cAMP-specific antibody. Active β-Gal is formed by complementation of exogenous EA to any unbound ED-cAMP.
cAMP Hunter cell lines were expanded from freezer stocks according to standard procedures. The cells were then seeded in a total volume of 20 μL into white walled, 384-well microplates and incubated at 37° C. for the appropriate time prior to testing. cAMP modulation was determined using the DiscoveRx HitHunter cAMP XS+ assay according to manufacturer's instructions. […]
After appropriate compound incubation, assay signal was generated through incubation with 20 μL cAMP XS+ ED/CL lysis cocktail for one hour followed by incubation with 20 μL cAMP XS+ EA reagent for three hours at room temperature. Microplates were read following signal generation with a PerkinElmer Envision™ instrument for chemiluminescent signal detection.

CXCR4 [4] = molecular target: T1, CXCR4; assay: Calcium flux assay (Screen Quest Fluo-8, FLIPR) in antagonist mode; format: cell-based; settings: SDF-1 at EC80
Experimental: Inhibition of Ca2+ influx by controls or i-bodies (IC50) was then determined.
Mammalian cells stably expressing human CXCR4 receptor were produced in-house by Multispan, Inc (catalog no. C1004-1). Control agonist used was SDF-1 (Peprotech, Cat #300-28A).
Cells were seeded in 384-well plate at an appropriate density and cultured overnight. Calcium assay was conducted according to the manufacturer's protocols. The calcium dye loading buffer was added to the cells and incubated for one hour at 37° C. Calcium flux was monitored for 120 seconds with compound injected into the wells at 19th second. In antagonist mode, carrier or compounds were preincubated with the cells for 30 minutes before calcium flux measurement with the control agonist at EC80 concentration obtained from dose-response curve.

[5] = molecular target: T2, human CXCR4 (CXCR4 positive lipoparticles) (Homo sapiens, UniProt P61073); assay: Biacore SPR kinetic binding to immobilised CXCR4 lipoparticles
T2 construct: purchased Integral Molecular LEV-101B
T2 sequence (P61073 whole entry): as above

[6] = intravitreal, 1 μl up to 20 mg/ml
[7] = CXCR4 expressed on lipoparticles (Table 4)

AM3-114: affinity matured CXCR4 i-body, SEQ ID NO: 40
binding to human fibrocytes (human fibrocytes): capable of binding to human fibrocytes
invasion of normal lung fibroblasts [1]: neither i-body had any effect
migration of IPF lung fibroblasts ([1]; slow and rapid IPF progressors): specifically inhibited migration
induction of apoptosis in Ramos cells (Ramos tumor cells): induced apoptosis
pro-fibrotic gene expression in treated eyes ([2]; PCR gene array): extensive down regulation of pro fibrotic genes
contraction of the lasered retinal regions [2, 6]: significant reduction in the contraction
pathological angiogenesis / lesion size [2, 6]: reduction of the lesion size

B1: AM3-523: affinity matured CXCR4 i-body, SEQ ID NO: 56 (protein)
chain: LQVDIVPSQGEISVGESKFFLCQVAGSGSHMRISWFSPNGEKLTPNQQRISVVWNDDSSSTLTIYNANIDDAGIYKCVVWVGGYRHRALVLGEATVNVKIFQ
modifications: protein sequence encoding AM3-523
IC50 (CXCR4 [3]): 225 nM
induction of apoptosis in Ramos cells (Ramos tumor cells): induced apoptosis
Calcium Inhibition EC50 (CXCR4 [4]): uM
Kd [5, 7]: 9.47 nM and 8.53 nM
dissociation rate constant (kd) [5, 7]: 9150 M⁻¹ s⁻¹ and 8610 M⁻¹ s⁻¹
dissociation rate constant (kd) ([5]; off-rate, CXCR4 expressed on lipoparticles (Table 3)): 0.00998
